Laboratory results reported in patent EP0073505B1, “Benzo-heterocycles” (priority 1981, dated 1983).

System: Meerschweinchen
Assay: Heart rate increase in the guinea pig, i.v.
Assay type: in vivo
Conditions: selectivity Broncholyse vs. Herzfrequenzsteigerung
Source text: Für die pharmakologischen Prüfungen werden die üblichen Testmethoden und Versuchstiere oder Organe verwendet. Pharmakologisch sind die erfindungsgemässen Verbindungen gegenüber Handelsprodukten der gleichen Indikation zum Teil sehr deutlich unterschieden. Neben einer guten Wirkungsdauer zeigt sich z.B. eine besonders deutliche Selektivität im Verhältnis Broncholyse zu Herzfrequenzsteigerung. So ist z. […] Günstig sind im allgemeinen auch die Resorptionsverhältnisse. So ist der Resorptionsquotient [formula] z.B. für die Verbindung 7 der Tabelle 3 nur 1,1, so dass die orale Wirkung praktisch ebenso gross ist wie die intravenöse. Die LD50-Werte liegen, z.B. an der Maus, so weit über der therapeutischen Dosis, dass eine günstige therapeutische Breite gegeben ist.

SMILES: CC[C@H](NC(C)C)[C@H](O)c1ccc(O)c2c1OCC(=O)N2 (relative stereo) [Beispiel 1]
- ED50 i.v. der Herzfrequenzsteigerung relative to ED50 i.v. der Broncholyse: mehr als zehnmal so gross
